Results on four compounds are retold here after patent US20090186811A1, “Y2 Selective Receptor Agonists for Therapeutic Interventions” (priority 2004, published 2009).

What is called EC50 is the concentration giving half of the maximal effect. Read a low EC50 as a more potent agent. A word on the IC50: it is the concentration that gives 50% inhibition. The low end stands for inhibition by little substance, the high end for a need for much substance.

Positions of bridges follow the written chain, without caps; N, C: chain ends. Non-standard residues stand in square brackets, D forms with d. Residues, ends and D or L forms follow the SMILES beside them. Aoc = NCCCCCCCC(=O)O

The target in data set [1] is T1, human Y5 receptor (Homo sapiens, UniProt Q15761).
T1 construct: expressed in transfected cells; host or cells: COS-7
T1 sequence (Q15761 whole entry): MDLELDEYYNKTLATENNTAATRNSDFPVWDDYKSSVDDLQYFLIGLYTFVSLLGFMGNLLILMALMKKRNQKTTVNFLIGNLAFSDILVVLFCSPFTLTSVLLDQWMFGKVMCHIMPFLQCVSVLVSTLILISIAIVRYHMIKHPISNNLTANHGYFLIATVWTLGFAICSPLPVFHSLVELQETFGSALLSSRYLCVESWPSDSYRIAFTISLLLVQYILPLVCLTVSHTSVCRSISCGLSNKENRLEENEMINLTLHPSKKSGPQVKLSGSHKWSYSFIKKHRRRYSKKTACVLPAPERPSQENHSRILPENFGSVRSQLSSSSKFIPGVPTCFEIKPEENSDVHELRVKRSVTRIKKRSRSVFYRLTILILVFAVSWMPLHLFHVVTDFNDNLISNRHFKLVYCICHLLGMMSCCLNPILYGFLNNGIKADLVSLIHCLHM
The experiment in a line: Human Y5 receptor potency assay (inositol phosphate turnover). It counts as cell-based. The procedure: (§1) Potency of the test compounds on the human Y2 receptor is determined by performing dose-response experiments in COS-7 cells transiently transfected with the human Y2 receptor as well as a promiscuous G protein, Gqi5 which ensures that the Y2 receptor couples through a Gq pathway leading to an increase in inositol phosphate turnover.
(§2) Cells are washed twice in buffer, 20 mM HEPES, pH 7.4, supplemented with 140 mM NaCl, 5 mM KCl, 1 mM MgSO4, 1 mM CaCl2, 10 mM glucose, 0.05% (w/v) bovine serum; and are incubated in 0.5 ml buffer supplemented with 10 mM LiCl at 37 C for 30 min. After stimulation with various concentrations of peptide for 45 min at 37 C, cells are extracted with 10% ice-cold perchloric acid followed by incubation on ice for 30 min. The resulting supernatants are neutralized with KOH in HEPES buffer, and the generated [3H]-inositol phosphate are purified on Bio-Rad AG 1-X8 anion-exchange resin and counted in a beta counter. Determinations are made in duplicates. EC50 values were calculated using a standard pharmacological data handling software, Prism 3.0 (graphPad Sofware, San Diego, USA).
Protocol as for the Y2 potency assay, except that human Y5-transformed COS-7 cells are used

Data set [2] addresses T2, human Y1 receptor (Homo sapiens, UniProt P25929).
T2 construct: expressed in transfected cells; host or cells: COS-7
T2 sequence (P25929 1-384): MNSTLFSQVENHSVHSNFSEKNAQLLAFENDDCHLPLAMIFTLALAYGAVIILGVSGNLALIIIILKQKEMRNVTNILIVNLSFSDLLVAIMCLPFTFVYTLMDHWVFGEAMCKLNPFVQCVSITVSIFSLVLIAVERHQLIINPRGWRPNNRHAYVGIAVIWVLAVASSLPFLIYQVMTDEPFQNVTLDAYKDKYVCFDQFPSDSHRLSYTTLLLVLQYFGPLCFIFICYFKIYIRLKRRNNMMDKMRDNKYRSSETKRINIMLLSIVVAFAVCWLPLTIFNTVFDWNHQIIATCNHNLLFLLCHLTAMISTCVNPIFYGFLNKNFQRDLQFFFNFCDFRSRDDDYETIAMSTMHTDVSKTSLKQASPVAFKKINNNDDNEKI
The experiment in a line: Human Y1 receptor affinity assay (competition binding). The procedure:
(§3) Transfected COS-7 cells are transferred to culture plates one day after transfection at a density of 40×10^3 cells per well aiming at 5-8% binding of the radioactive ligand. […] Determinations are made in duplicate. […] EC50 values were calculated using a standard pharmacological data handling software, Prism 3.0 (graphPad Sofware, San Diego, USA).

Data set [3] deals with T3, human Y4 receptor (Homo sapiens, UniProt P50391).
T3 construct: expressed in transfected cells; host or cells: COS-7
T3 sequence (P50391 whole entry): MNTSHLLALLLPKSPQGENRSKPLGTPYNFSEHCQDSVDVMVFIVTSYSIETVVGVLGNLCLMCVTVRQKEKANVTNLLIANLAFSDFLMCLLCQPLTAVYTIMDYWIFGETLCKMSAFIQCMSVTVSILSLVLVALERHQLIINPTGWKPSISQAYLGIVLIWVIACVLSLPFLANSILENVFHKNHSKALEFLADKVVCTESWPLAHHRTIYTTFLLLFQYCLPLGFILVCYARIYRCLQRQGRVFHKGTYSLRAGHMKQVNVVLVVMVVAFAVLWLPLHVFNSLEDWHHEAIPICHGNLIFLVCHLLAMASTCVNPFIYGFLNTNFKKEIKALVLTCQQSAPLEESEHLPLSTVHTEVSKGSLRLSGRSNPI
The experiment in a line: Human Y4 receptor affinity assay (competition binding). The procedure: as §3

Data set [4] deals with T4, human Y2 receptor (Homo sapiens, UniProt P49146).
T4 construct: expressed in transfected cells; host or cells: COS-7
T4 sequence (P49146 1-381): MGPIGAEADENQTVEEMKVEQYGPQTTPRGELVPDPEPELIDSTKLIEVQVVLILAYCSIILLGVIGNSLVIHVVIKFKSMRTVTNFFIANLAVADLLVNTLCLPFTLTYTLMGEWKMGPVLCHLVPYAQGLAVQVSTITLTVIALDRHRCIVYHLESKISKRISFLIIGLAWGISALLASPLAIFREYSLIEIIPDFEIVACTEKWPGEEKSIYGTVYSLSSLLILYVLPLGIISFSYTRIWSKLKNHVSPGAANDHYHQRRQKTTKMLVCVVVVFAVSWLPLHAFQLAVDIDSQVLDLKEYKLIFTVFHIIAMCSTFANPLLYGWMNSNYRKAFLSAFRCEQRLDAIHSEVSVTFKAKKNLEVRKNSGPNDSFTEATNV
The experiment in a line: Human Y2 receptor affinity assay (competition binding). As for the experimental part:
as §3

Data set [5] addresses T4, human Y2 receptor. The experiment in a line: Human Y2 receptor potency assay (inositol phosphate turnover). It counts as cell-based. Conditions: Y2 EC50, COS-7 cells with human Y2 and Gqi5, inositol phosphate turnover; Table 2. The procedure: as §1, §2
The target in data set [6] is T2, human Y1 receptor. The experiment in a line: Human Y1 receptor potency assay (inositol phosphate turnover). It counts as cell-based. The procedure: as §1, §2
Protocol as for the Y2 potency assay, except that human Y1-transformed COS-7 cells are used.

The target of data set [7] is T1, human Y5 receptor. As to the kind of experiment: Human Y5 receptor affinity assay (competition binding). The procedure: as §3
In data set [8] the target is T3, human Y4 receptor. The experiment in a line: Human Y4 receptor potency assay (inositol phosphate turnover). It counts as cell-based. The procedure: as §1, §2
Protocol as for the Y2 potency assay, except that human Y4-transformed COS-7 cells are used.

The next data set concerns rats. Conditions: rat; cited from earlier work.

Compound `CC(C)C[C@H](NC(=O)[C@H](Cc1ccc(O)cc1)NC(=O)[C@H](Cc1c[nH]cn1)NC(=O)[C@H](CCCNC(=N)N)NC(=O)[C@H](CCCCN)NC(=O)[C@H](CCCCN)NC(=O)[C@H](CCCCN)NC(=O)[C@H](CCCCN)NC(=O)[C@H](CCCCN)NC(=O)[C@@H](N)CCCCN)C(=O)N[C@@H](CC(N)=O)C(=O)N[C@@H](CC(C)C)C(=O)N[C@H](C(=O)N[C@H](C(=O)N[C@@H](CCCNC(=N)N)C(=O)N[C@@H](CCC(N)=O)C(=O)N[C@@H](CCCNC(=N)N)C(=O)N[C@@H](Cc1ccc(O)cc1)C(N)=O)[C@@H](C)O)C(C)C` [SEQ ID NO: 11, Lys-Lys-Lys-Lys-Lys-Lys-PYY25-36] gave an EC50 on human Y5 receptor [1] of over 1 µM.
For `CC[C@H](C)[C@H](NC(=O)[C@H](Cc1ccc(O)cc1)NC(=O)[C@H](CCCNC(=N)N)NC(=O)[C@H](CCCNC(=N)N)NC(=O)[C@H](CC(C)C)NC(=O)[C@H](CC(=O)O)NC(=O)[C@H](C)NC(=O)[C@H](C)NC(=O)[C@H](Cc1ccc(O)cc1)NC(=O)[C@H](CCC(N)=O)NC(=O)[C@H](C)NC(=O)[C@H](CCSC)NC(=O)[C@H](CCC(N)=O)NC(=O)[C@H](CCC(=O)O)NC(=O)[C@@H]1CCCN1C(=O)[C@@H](NC(=O)[C@H](C)NC(=O)[C@H](CC(N)=O)NC(=O)[C@H](CC(=O)O)NC(=O)CNC(=O)[C@@H]1CCCN1C(=O)[C@H](Cc1ccc(O)cc1)NC(=O)[C@@H](NC(=O)[C@@H]1CCCN1C(=O)[C@H](CCCCN)NC(=O)[C@H](CC(C)C)NC(=O)[C@@H]1CCCN1C(=O)[C@H](C)N)C(C)C)[C@@H](C)O)C(=O)N[C@@H](CC(N)=O)C(=O)N[C@@H](CCSC)C(=O)N[C@@H](CC(C)C)C(=O)N[C@H](C(=O)N[C@@H](CCCNC(=N)N)C(=O)N[C@@H](CCC(N)=O)C(=O)N[C@@H](CCCNC(=N)N)C(=O)N[C@@H](Cc1ccc(O)cc1)C(N)=O)[C@@H](C)O` [SEQ ID NO: 12, [Lys4,Gln34]PP], the IC50 at human Y1 receptor [2] was over 1 µM.
For `CC[C@H](C)[C@@H]1NC(=O)[C@@H](NC(=O)[C@@H](N)Cc2ccc(O)cc2)CSSC[C@H](C(=O)N[C@@H](CC(C)C)C(=O)N[C@@H](CC(N)=O)C(=O)N[C@@H](CC(C)C)C(=O)N[C@H](C(=O)N[C@H](C(=O)N[C@@H](CCCNC(=N)N)C(=O)N[C@@H](CCC(N)=O)C(=O)N[C@@H](CCCNC(=N)N)C(=O)N[C@@H](Cc2ccc(O)cc2)C(N)=O)[C@@H](C)O)C(C)C)NC(=O)[C@H](Cc2c[nH]cn2)NC(=O)[C@H](CCCNC(=N)N)NC(=O)CCCCCCCNC(=O)[C@H](CCCCN)NC1=O` [SEQ ID NO: 16, [Cys2,Aoc5-24,D-Cys27]PYY] (H-YCIK[Aoc]RH[dC]LNLVTRQRY-NH2; disulfide 2-8; N-terminus assumed), the EC50 at human Y5 receptor [1] was over 1 µM; on human Y2 receptor [5] it was 0.0037 µM; at human Y1 receptor [6] it was over 1 µM; on human Y4 receptor [8] it was over 1 µM. The “stimulation of the Y5 receptor” value at human Y5 receptor [1] (at a concentration of 1 μM) is listed as “stimulates neither”. The IC50 was 0.267 µM on human Y4 receptor [3], 0.00087 µM on human Y2 receptor [4], over 1 µM on human Y1 receptor [2] and over 1 µM at human Y5 receptor [7]. Also, the “stimulation of the Y1 receptor” value on human Y1 receptor [6] (at 1 μM) is listed as “does not even at 1 μM stimulate”. Also, the “stimulation of the Y4 receptor” value on human Y4 receptor [8] (at a concentration of 1 μM) was “stimulates neither”.
Turning to [Ahx5-24, gamma-Glu2-eps-Lys30]NPY, the “blood pressure increase in vivo” value in the data set on rats is recorded as “not to induce blood pressure increases”.
